“Also recorded” adds a separate entry of the source.
Key:
ARPE-19 cells [1] = test: Oxidative stress followed by challenge with complement, cell death; assay type: cell-based; conditions: then challenge with complement
Text: Oxidative stress and complement activation are the two most highly cited factors associated with occurrence and progression of AMD. To examine functional consequences of this relationship we treated ARPE-19 cells with either H2O2 or t-BH followed by challenge with complement. […] FACS analysis of ARPE-19 after treatment with t-Bh or H2O2 indicated minimal impact in expression levels (FIG. 3B).

ARPE-19 cells [2] = test: Complement mediated cell death assay on RPE cells in the context of oxidative stress (cell protection assay, NIH clinical collection library screen); assay type: cell-based; conditions: for protection against cell death mediated by complement attack and oxidative stress: versus vehicle (DMSO)
Experimental: ARPE-19 cells were plated at sub confluence in 96 well culture plates and cultured 24 to 48 hrs. The cells were then treated with 1:1000 dilution of each compound from the NIH clinical collection library overnight. The following day culture media was collected and set aside. The cells were washed and then treated with 0.77 mM H2O2 in hanks buffered saline solution (HBSS) for 90 minutes in the presence of fresh compound from NIH clinical collection library at a 1:1000 dilution. Cells were then washed and primed with a solution of HBSS containing 24% S-58 for 30 minutes. After the priming step cells were washed and then treated with 6% C1q deficient human serum in the original cell culture supernatant collected prior to H2O2 treatment. 90 minutes after addition of the human serum cells were labeled with the membrane impermeant nuclear dye SYTOX® orange and the number of positive cells determined. This count was then used to determine level of cell death. Quantitation and imaging were accomplished by capturing a single field per objective using a 10× objective and then counting the number of positive nuclei using metamorph image analysis software. Data was collected and expressed as % protection relative to wells containing vehicle alone (DMSO).
Data was collected and the level of protection by each compound determined by averaging the results of two independent experiments. FIG. 4 is the distribution of results indexed to compound plate (y-axis) and Protection (x-axis). […] FIG. 5 contains a list of compounds with protective properties. Of the 17 compounds selected, six compounds (Zeranol, Penciclovir, Rifapentine, Rifaximin, calcitrol, 3-[3,5-DIBROMO-4-HYDROXYBENZOYL]-2-ETHYLBENZOFURAN) were deemed to function as anti-oxidants in the assay. Of the remaining 11 compounds, four fall into a single class associated with modulation of the arachidonic acid pathway. This included Zileuton, Zafirlukast, Montelukast, and Loxoprofen. […] The targeting was both direct at 5-lipoxygenase (Zileuton) and indirect at the leukotiene receptor (Zafirlukast, Montelukast).
The observation that inhibition of 5-lipoxygenase is protective against the combined effects of oxidative stress and complement attack in ARPE-19 cells prompted us to test the 5 lipoxygenase activating protein inhibitor MK886 for its ability to protect ARPE-19 cells from oxidative stress and complement attack in vitro. The cell protection assay was carried out essentially as described in Examples 1-4.
In addition to the MK886 inhibitor we also evaluated other know 5-lipoxygenase inhibitors, including 2-TEDC and monocyclin, for their ability to protect ARPE-19 cells against oxidative stress and complement attack, using the cell protection assay described in Examples 1-4.

Balb/c mice [3] = test: Blue light induced retinal damage, outer nuclear layer histology scoring; assay type: in vivo; conditions: 1 mg/Kg PO BID 14 days; blue light 4800 lux 8 hours
Experimental: Balb/c mice were dosed orally (PO) at 1 mg/Kg starting 16 hours prior to blue light, and then BID for the next 14 days. Control animal received an equivalent volume of vehicle (0.5% Avicel R-91 and 0.1% Tween-80 in dH2O) to compound treated animals.
Animals were first dark adapted for 16 hours prior to blue light. Animals were then exposed to blue light at 4800 lux for 8 hours. Animals were then moved to normal housing conditions.
Eyes were immersion fixed over night at room temperature in Davidson's Fix special (BBC Biochemical, Mt Vernon, Wash.), dehydrated for 1 hr in 50% EtOH at room temperature, and then placed into 70% EtOH at room temperature. Eyes were stored in 70% EtOH until subjected to automated paraffin processing. After processing, eyes were embedded in paraffin, sectioned on a rotary microtome at 5 μm thickness through the optic nerve head parallel to the vertical meridian, and mounted on glass slides. Sections were baked onto slides, subjected to automated H&E staining, and coverslipped using permanent mounting medium. Stained tissue sections were then examined by an observed blinded to treatment regiments and scored to determine the level of damage to the outer nuclear layer.

Balb/c mice [4] = test: Blue light induced retinal damage, ERG; assay type: in vivo; conditions: 1 mg/Kg PO BID 14 days; ERG 2 weeks post blue light; p<0.05
Text: To further explore the protective effects of inhibition of the 5-lipoxygenase pathway, we examined the ability of 5-lipoxygenase inhibition in two in vivo models. The first in vivo model was a model of retinal oxidative stress induced by intravitreal injection of Paraquat in SOD1−/+ animals (Dong, A., et al., Superoxide dismutase 1 protects retinal cells from oxidative damage. J Cell Physiol, 2006. 208(3): p. 516-26). In addition to elevation of oxidative stress Paraquat is also known to induce activation of complement (Sun, S., et al. (2011 Mar. 18) “Complement Inhibition Alleviates Paraquat-Induced Acute Lung Injury” Am J Respir Cell Mol Biol. EPub), allowing us to examine effects of oxidative stress and complement activation in vivo similar to that observed in the in vitro RPE assay, above. The second in vivo model in which we examined the effects of 5-lipoxygenase inhibition was a rodent light induced retinal degeneration model. […]
The ERG was performed 2 weeks post blue light (4 days post OCT to allow for cataracts to clear). […] The ERG was then recorded with the animal on a heating pad (takes 7-8 minutes). Animals were revived by administration of 0.5 mg/kg atipamezole (injected i.p.), returned to their cages, and warmed using a heating pad and monitored until awake.

5-lipoxygenase = molecular target: T1, 5-lipoxygenase (Homo sapiens, UniProt P09917); conditions: read-out: known I.C.50 inhibition of 5-lipoxygenase; Cho et al., J Med Chem 1991; cited from earlier work
T1 sequence (P09917 1-674): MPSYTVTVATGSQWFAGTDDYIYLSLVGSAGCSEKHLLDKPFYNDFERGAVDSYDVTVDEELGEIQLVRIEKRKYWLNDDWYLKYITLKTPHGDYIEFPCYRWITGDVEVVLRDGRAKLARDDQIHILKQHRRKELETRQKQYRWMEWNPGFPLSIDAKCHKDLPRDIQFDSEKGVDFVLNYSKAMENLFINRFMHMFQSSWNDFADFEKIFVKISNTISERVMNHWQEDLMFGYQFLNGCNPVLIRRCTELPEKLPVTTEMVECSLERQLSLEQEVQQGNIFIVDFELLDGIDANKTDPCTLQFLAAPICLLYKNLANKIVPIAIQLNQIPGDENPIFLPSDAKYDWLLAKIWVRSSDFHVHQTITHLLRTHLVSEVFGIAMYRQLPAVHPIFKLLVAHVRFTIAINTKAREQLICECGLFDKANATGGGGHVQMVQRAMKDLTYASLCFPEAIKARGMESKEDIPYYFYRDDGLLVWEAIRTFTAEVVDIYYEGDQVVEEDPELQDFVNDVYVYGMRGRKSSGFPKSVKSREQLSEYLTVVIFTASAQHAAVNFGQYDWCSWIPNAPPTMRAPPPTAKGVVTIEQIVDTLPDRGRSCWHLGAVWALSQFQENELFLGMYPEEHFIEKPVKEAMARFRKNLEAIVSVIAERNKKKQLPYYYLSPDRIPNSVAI

## OO [H2O2]
ARPE-19 cells [1]
  increase in cell death: > 10 fold

## c1ccc2c(c1)SCc1c-2[nH]c2ccccc12 [PD146176, 6,11-dihydro-[1]benzothiopyrano[4,3-b]indol]
ARPE-19 cells [2]
  protection against cell death mediated by complement attack and oxidative stress: no protection; also recorded: no protective activity

## Cn1nccc1-c1ccc(Sc2cccc(C3(C(N)=O)CCOCC3)c2)cc1 [PF-4191834, 4-(3-(4-(1-Methyl-1H-pyrazol-5-yl)phenylthio)phenyl)-tetrahydro-2H-pyran-4-carboxamide]
Balb/c mice [3]
  retinal structure / outer nuclear layer thickness: protected retinal structure and preserved photoreceptors
Balb/c mice [4]
  protection against loss of retinal ERG A-wave amplitude: protected against the loss of ERG A-wave amplitude; also recorded: protected against functional loss

## CC(C)(C)OO [t-BH]
ARPE-19 cells [1]
  increase in cell death: 20-30%

## CC(C)c1ccc2c(c1)c(SC(C)(C)C)c(CC(C)(C)C(=O)[O-])n2Cc1ccc(Cl)cc1.[Na+] [MK886, 1-[(4-chlorophenyl)methyl]-3-[(1,1-dimethylethyl)thio]-α,α-dimethyl-5-(1-methylethyl)-1H-indole-2-propanoic acid, sodium salt]
ARPE-19 cells [2]; sodium salt
  protection against cell death mediated by complement attack and oxidative stress: dose dependently protected; also recorded: protects; also recorded: effectively blocked cell death in a dose dependent manner

## N#C/C(=C\c1ccc(O)c(O)c1)C(=O)OCCc1cccs1 [2-TEDC]
5-lipoxygenase
  IC50: 90 nM
ARPE-19 cells [2]; Homo sapiens, FIG. 7, read-out: I.C.50 of blocking cell death within the assay system
  IC50: 100 nM
ARPE-19 cells [2]; concentration = known I.C.50 for 12 lipoxygenase
  activity at the known I.C. 50 for 12 lipoxygenase: little activity
ARPE-19 cells [2]; concentration = known I.C.50 for 15 lox
  protection at the known I.C.50 for 15 lox: ~100%
ARPE-19 cells [2]
  protection against cell death mediated by complement attack and oxidative stress: dose dependently protected; also recorded: dose dependent protection
